Measurements from ChEMBL document CHEMBL1833824, “Effects of cyclization on stability, structure, and activity of α-conotoxin RgIA at the α9α10 nicotinic acetylcholine receptor and GABA(B) receptor” (J Med Chem, 2011).
Bridge positions count the residues as written; N and C are the ends. Peptide text beside a SMILES is read from it.

Columns and labels:
Oocyte [1] = test: Inhibition of human alpha-9/rat alpha-10 nACHR expressed in Xenopus oocytes assessed as inhibition of acetylcholine-induced current at 50 nM by voltage clamp assay; assay type: cell-based
[2] = Inhibition of human alpha-9/rat alpha-10 nAChR expressed in Xenopus oocytes assessed as inhibition of acetylcholine-induced current by voltage clamp assay; assay type: cell-based; details: Oocyte
[3] = Inhibition of GABA-B receptor-mediated high voltage-activated Ca2+ channel current in Wistar rat DRG neurons by whole-cell patch clamp assay; details: DRG neuron
[4] = Metabolic stability in human AB positive serum assessed as compound degradation at 20 uM at 5 hrs; assay type: ADME, cell-free; details: read-out: Drug metabolism
Oocyte [5] = test: Inhibition of human alpha-9/rat alpha-10 nACHR expressed in Xenopus oocytes assessed as inhibition of acetylcholine-induced current by voltage clamp assay relative to RgIA; assay type: cell-based; details: dose or concentration not given here

Compound	inhibition (Oocyte [1]) [%]	IC50 [2] [nM]	IC50 [3] [nM]	metabolised at 5 h, 20 µM [4] [%]	inhibition (Oocyte [5]) [%]
N=C(N)NCCC[C@H](NC(=O)[C@@H]1CSSC[C@@H]2NC(=O)[C@@H](NC(=O)CN)CSSC[C@H](NC(=O)[C@H](CCCNC(=N)N)NC(=O)[C@@H]3CCCN3C(=O)[C@H](CC(=O)O)NC(=O)[C@H](CO)NC2=O)C(=O)N[C@@H](CCCNC(=N)N)C(=O)N[C@@H](Cc2ccc(O)cc2)C(=O)N[C@@H](CCCNC(=N)N)C(=O)N1)C(=O)O	60	40	40.7	–	–
N=C(N)NCCC[C@@H]1NC(=O)[C@H](Cc2ccc(O)cc2)NC(=O)[C@H](CCCNC(=N)N)NC(=O)[C@@H]2CSSC[C@H](NC(=O)CN)C(=O)N[C@@H](CSSC[C@@H](C(=O)O)NC1=O)C(=O)N[C@@H](CO)C(=O)N[C@@H](CC(=O)O)C(=O)N1CCC[C@H]1C(=O)N[C@@H](CCCNC(=N)N)C(=O)N2 (H-GCCSDPRCRYRC-OH; disulfide 2-8, 3-12)	55	34	4.4	92	–
C[C@H](NC(=O)[C@H](C)NC(=O)CNC(=O)[C@@H]1CSSC[C@H](NC(=O)CN)C(=O)N[C@H]2CSSC[C@H](NC(=O)[C@H](CCCNC(=N)N)NC(=O)[C@@H]3CCCN3C(=O)[C@H](CC(=O)O)NC(=O)[C@H](CO)NC2=O)C(=O)N[C@@H](CCCNC(=N)N)C(=O)N[C@@H](Cc2ccc(O)cc2)C(=O)N[C@@H](CCCNC(=N)N)C(=O)N1)C(=O)O (H-GCCSDPRCRYRCGAA-OH; disulfide 2-12, 3-8)	–	–	82.5	–	8
C[C@H](NC(=O)CNC(=O)[C@@H]1CSSC[C@H](NC(=O)CN)C(=O)N[C@H]2CSSC[C@H](NC(=O)[C@H](CCCNC(=N)N)NC(=O)[C@@H]3CCCN3C(=O)[C@H](CC(=O)O)NC(=O)[C@H](CO)NC2=O)C(=O)N[C@@H](CCCNC(=N)N)C(=O)N[C@@H](Cc2ccc(O)cc2)C(=O)N[C@@H](CCCNC(=N)N)C(=O)N1)C(=O)N[C@@H](C)C(=O)NCC(=O)O (H-GCCSDPRCRYRCGAAG-OH; disulfide 2-12, 3-8)	–	–	70.1	–	12
C[C@H](NC(=O)CNC(=O)[C@@H]1CSSC[C@H](NC(=O)CN)C(=O)N[C@H]2CSSC[C@H](NC(=O)[C@H](CCCNC(=N)N)NC(=O)[C@@H]3CCCN3C(=O)[C@H](CC(=O)O)NC(=O)[C@H](CO)NC2=O)C(=O)N[C@@H](CCCNC(=N)N)C(=O)N[C@@H](Cc2ccc(O)cc2)C(=O)N[C@@H](CCCNC(=N)N)C(=O)N1)C(=O)N[C@@H](C)C(=O)NCC(=O)NCC(=O)O (H-GCCSDPRCRYRCGAAGG-OH; disulfide 2-12, 3-8)	–	–	11.5	–	25
C[C@H](NC(=O)CNC(=O)[C@H](C)NC(=O)[C@H](C)NC(=O)CNC(=O)CNC(=O)[C@@H]1CSSC[C@H](NC(=O)CN)C(=O)N[C@H]2CSSC[C@H](NC(=O)[C@H](CCCNC(=N)N)NC(=O)[C@@H]3CCCN3C(=O)[C@H](CC(=O)O)NC(=O)[C@H](CO)NC2=O)C(=O)N[C@@H](CCCNC(=N)N)C(=O)N[C@@H](Cc2ccc(O)cc2)C(=O)N[C@@H](CCCNC(=N)N)C(=O)N1)C(=O)NCC(=O)O (H-GCCSDPRCRYRCGGAAGAG-OH; disulfide 2-12, 3-8)	60	19	36.3	54	–
C[C@H](NC(=O)CNC(=O)CNC(=O)[C@@H]1CSSC[C@H](NC(=O)CN)C(=O)N[C@H]2CSSC[C@H](NC(=O)[C@H](CCCNC(=N)N)NC(=O)[C@@H]3CCCN3C(=O)[C@H](CC(=O)O)NC(=O)[C@H](CO)NC2=O)C(=O)N[C@@H](CCCNC(=N)N)C(=O)N[C@@H](Cc2ccc(O)cc2)C(=O)N[C@@H](CCCNC(=N)N)C(=O)N1)C(=O)N[C@@H](C)C(=O)NCC(=O)NCC(=O)O (H-GCCSDPRCRYRCGGAAGG-OH; disulfide 2-12, 3-8)	–	> 50	4.3	43	39
